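Five concentrations, 48 hours, 96-well plates. GI50 marks 50% less growth.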 Activity calls are given as the source filed them. Cut-off read from the data, not from the text of the source: active = GI50 up to about 1.1 µM and inactive = higher.
Columns and labels:
Test in all cases: NCI tumour cell line growth inhibition, 48 h
[1] = tested on: A498
[2] = tested on: A549
[3] = tested on: ACHN
[4] = tested on: CAKI-1
[5] = tested on: CCRF-CEM
[6] = tested on: COLO 205
[7] = tested on: EKVX
[8] = tested on: HCT-116
[9] = tested on: HOP-92
[10] = tested on: K562
[11] = tested on: Malme-3M
[12] = tested on: NCI-H23
[13] = tested on: NCI-H460
[14] = tested on: OVCAR-3
[15] = tested on: SF-268
[16] = tested on: SF-539
[17] = tested on: SK-MEL-5
[18] = tested on: TK-10
[19] = tested on: HCC 2998
[20] = tested on: HCT-15

| SMILES | GI50 [1] | GI50 [2] | GI50 [3] | GI50 [4] | GI50 [5] | GI50 [6] | GI50 [7] | GI50 [8] | GI50 [9] | GI50 [10] | GI50 [11] | GI50 [12] | GI50 [13] | GI50 [14] | GI50 [15] | GI50 [16] | GI50 [17] | GI50 [18] | GI50 [19] | GI50 [20] |
| --- | --- | --- | --- | --- | --- | --- | --- | --- | --- | --- | --- | --- | --- | --- | --- | --- | --- | --- | --- | --- |
| CCC(O)CCCCCCCCCCCCCCC(=O)O (stereo unspecified) | > 100 µM (inactive) | > 100 µM (inactive) | > 100 µM (inactive) | > 100 µM (inactive) | > 100 µM (inactive) | > 100 µM (inactive) | > 100 µM (inactive) | > 100 µM (inactive) | > 100 µM (inactive) | > 100 µM (inactive) | > 100 µM (inactive) | > 100 µM (inactive) | > 100 µM (inactive) | > 100 µM (inactive) | > 100 µM (inactive) | > 100 µM (inactive) | 18.8 µM (inactive) | > 100 µM (inactive) |  |  |
| COc1ccc(OC)c2c1ccc1c(C)c3ccccc3c(C)c12 | 61 µM (inactive) |  | > 100 µM (inactive) | > 100 µM (inactive) | > 100 µM (inactive) |  |  | 67.9 µM (inactive) |  | 51.8 µM (inactive) | > 100 µM (inactive) | 89.5 µM (inactive) | 71.9 µM (inactive) | 95.3 µM (inactive) | > 100 µM (inactive) |  |  | > 100 µM (inactive) | 15.8 µM (inactive) | 18 µM |
| O=C1c2ccccc2C(=O)N1CCCOCc1cnc(O)nc1O | > 100 µM (inactive) | > 100 µM (inactive) | > 100 µM (inactive) | > 100 µM (inactive) | > 100 µM (inactive) | > 100 µM (inactive) | > 100 µM (inactive) | > 100 µM (inactive) | > 100 µM (inactive) | > 100 µM (inactive) | > 100 µM (inactive) | > 100 µM (inactive) | > 100 µM (inactive) | > 100 µM (inactive) | > 100 µM (inactive) | > 100 µM (inactive) | > 100 µM (inactive) | > 100 µM (inactive) |  | > 100 µM |
| Cc1nnc2c3c(-c4ccccc4)c(-c4ccccc4)oc3nc(N(C)C)n12 | 65.2 µM (inactive) | 37.2 µM (inactive) | 64.6 µM (inactive) | > 100 µM (inactive) | 29.6 µM (inactive) | 64.4 µM (inactive) | > 100 µM (inactive) | 24.8 µM (inactive) | > 100 µM (inactive) | 36.1 µM (inactive) |  | 54.5 µM (inactive) |  |  | 39.5 µM (inactive) | 86.5 µM (inactive) | 35.2 µM (inactive) | > 100 µM (inactive) | 29.4 µM (inactive) | 23.7 µM |
| Cc1cn(CC2=NCCCN2)c(=O)[nH]c1=O | > 100 µM (inactive) | > 100 µM (inactive) | > 100 µM (inactive) |  | > 100 µM (inactive) | > 100 µM (inactive) | > 100 µM (inactive) | > 100 µM (inactive) | > 100 µM (inactive) | > 100 µM (inactive) | > 100 µM (inactive) | > 100 µM (inactive) | > 100 µM (inactive) |  | > 100 µM (inactive) |  | > 100 µM (inactive) | > 100 µM (inactive) | > 100 µM (inactive) | > 100 µM |
| CC(C)(C)OC(=O)NC1CCCC1C(=O)C1=CCCC1 (stereo unspecified) | > 100 µM (inactive) | > 100 µM (inactive) | > 100 µM (inactive) |  | 74.6 µM (inactive) | > 100 µM (inactive) |  | 97.3 µM (inactive) | > 100 µM (inactive) | > 100 µM (inactive) |  | 85.7 µM (inactive) | > 100 µM (inactive) | > 100 µM (inactive) | > 100 µM (inactive) |  | 65 µM (inactive) |  | 88.7 µM (inactive) | 59 µM |
| CCOP(=O)(OCC)/C(C#N)=C/c1ccc(-c2cc(C(F)(F)F)cc(C(F)(F)F)c2)o1 | 12.4 µM (inactive) | 14.4 µM (inactive) | 12.7 µM (inactive) |  | 9.75 µM (inactive) | 12.4 µM (inactive) | 20.7 µM (inactive) | 13.2 µM (inactive) | 8.41 µM (inactive) | 3.3 µM (inactive) |  | 13 µM (inactive) | 6.38 µM (inactive) | 8.02 µM (inactive) | 15.2 µM (inactive) | 14.9 µM (inactive) |  | 16.4 µM (inactive) | 8.45 µM (inactive) | 6.38 µM |
| Cn1c(N)c(Cc2ccc(Cl)cc2)c(=O)[nH]c1=O | > 100 µM (inactive) | > 100 µM (inactive) | > 100 µM (inactive) | > 100 µM (inactive) | > 100 µM (inactive) | > 100 µM (inactive) | > 100 µM (inactive) | > 100 µM (inactive) | 89.7 µM (inactive) | > 100 µM (inactive) | > 100 µM (inactive) | > 100 µM (inactive) |  | > 100 µM (inactive) | > 100 µM (inactive) | > 100 µM (inactive) | > 100 µM (inactive) | > 100 µM (inactive) |  | > 100 µM |
| O=C(O)c1nnsc1-c1csnn1 | > 100 µM (inactive) | > 100 µM (inactive) | > 100 µM (inactive) | > 100 µM (inactive) | > 100 µM (inactive) | > 100 µM (inactive) | > 100 µM (inactive) | > 100 µM (inactive) | > 100 µM (inactive) | > 100 µM (inactive) | > 100 µM (inactive) | > 100 µM (inactive) | > 100 µM (inactive) | > 100 µM (inactive) | > 100 µM (inactive) | > 100 µM (inactive) | > 100 µM (inactive) | 74.8 µM (inactive) |  | > 100 µM |
| Cc1cccc(C)c1NC(=O)C(=O)C(C(=O)c1ccccc1-c1ccccc1)C1OC(=O)c2ccccc21 (stereo unspecified) | 18.7 µM (inactive) | 25.6 µM (inactive) | 43.9 µM (inactive) |  | 19.4 µM (inactive) | 19.2 µM (inactive) | 26.3 µM (inactive) | 14.6 µM (inactive) | 16.7 µM (inactive) | 30.4 µM (inactive) | 12.5 µM (inactive) | 14.3 µM (inactive) | 27.3 µM (inactive) | 17.1 µM (inactive) | 23.7 µM (inactive) | 14.8 µM (inactive) | 17.8 µM (inactive) | 26.7 µM (inactive) | 15.1 µM (inactive) |  |
| Cc1cccc(NC2=NC(=O)C(CC(=O)Nc3ccc(Cl)cc3C)S2)c1 (stereo unspecified) | 53.8 µM (inactive) | > 100 µM (inactive) | > 100 µM (inactive) | > 100 µM (inactive) | > 100 µM (inactive) | > 100 µM (inactive) | > 100 µM (inactive) |  |  | > 100 µM (inactive) | > 100 µM (inactive) | > 100 µM (inactive) | > 100 µM (inactive) | > 100 µM (inactive) | > 100 µM (inactive) | > 100 µM (inactive) | > 100 µM (inactive) | > 100 µM (inactive) | > 100 µM (inactive) | > 100 µM |
| C=CCC1(OCc2ccccc2)C(=O)C(=O)OC1C1COC(C)(C)O1 (stereo unspecified) | > 100 µM (inactive) | > 100 µM (inactive) | > 100 µM (inactive) | > 100 µM (inactive) | > 100 µM (inactive) | > 100 µM (inactive) | > 100 µM (inactive) | > 100 µM (inactive) |  | > 100 µM (inactive) | > 100 µM (inactive) | > 100 µM (inactive) | > 100 µM (inactive) | > 100 µM (inactive) | > 100 µM (inactive) | > 100 µM (inactive) | > 100 µM (inactive) | > 100 µM (inactive) | > 100 µM (inactive) | > 100 µM |
| C[C@H]1C(=O)C2=C[C@H]1CCC(=O)[C@]1(C)CCCC(C)(C)[C@H]1C[C@H]2O | 12.1 µM (inactive) | 19 µM (inactive) | 17.3 µM (inactive) | 22.4 µM (inactive) | 15.8 µM (inactive) | 14.3 µM (inactive) | 13.1 µM (inactive) | 31.7 µM (inactive) | 24.3 µM (inactive) | 12.4 µM (inactive) | 20.6 µM (inactive) | 21.8 µM (inactive) | 21.9 µM (inactive) | 29.2 µM (inactive) | 20.5 µM (inactive) | 15.4 µM (inactive) |  | 15.3 µM (inactive) |  | 14.3 µM |
| O=C(Oc1ccc(OC(Oc2ccccc2)c2ccccc2)cc1)c1ccccc1 (stereo unspecified) | 18.6 µM (inactive) | 21.1 µM (inactive) | 26.7 µM (inactive) | > 10 µM (inactive) | 17.3 µM (inactive) | > 31.6 µM (inactive) | 29.7 µM (inactive) | 16.1 µM (inactive) |  | > 31.6 µM (inactive) | 13.2 µM (inactive) | 6.21 µM (inactive) | > 63.2 µM (inactive) | 25.4 µM (inactive) | 13 µM (inactive) |  | 22.1 µM (inactive) | 31.3 µM (inactive) | 17.6 µM (inactive) | > 10 µM |
| Nc1ncn2c(n1)nc1ccccc12 | 57 µM (inactive) | > 100 µM (inactive) | > 100 µM (inactive) | > 100 µM (inactive) | > 100 µM (inactive) | > 100 µM (inactive) | 54.8 µM (inactive) | > 100 µM (inactive) | 37.2 µM (inactive) | > 100 µM (inactive) | > 100 µM (inactive) | > 100 µM (inactive) | > 100 µM (inactive) |  | > 100 µM (inactive) | > 100 µM (inactive) | > 100 µM (inactive) | > 100 µM (inactive) |  | > 100 µM |
| COc1ccc(-n2nnc3c(C#N)c(C)c(-c4ccccc4)n3c2=O)cc1 | 3.45 µM (inactive) | 2.9 µM (inactive) | 7.38 µM (inactive) |  | 0.38 µM (active) | 2.93 µM (inactive) | 2.84 µM (inactive) | 0.501 µM (active) | > 92.7 µM (inactive) |  | 3.95 µM (inactive) | 3.34 µM (inactive) | 3.65 µM (inactive) | 1.16 µM (inactive) | 5.19 µM (inactive) | 2.04 µM (inactive) | 2.81 µM (inactive) | > 43.2 µM (inactive) | 3.56 µM (inactive) | 4.72 µM |
